Assay results taken from US20080242870A1 (priority 2006, published 2008).
Values joined by “and” are separate entries in the source; they are usually repeats but may differ in a detail not shown here. Identical values can stand only once.

Columns and labels:
Type in all cases: physicochemical
[1] = Sub-ambient (77 K) emission in 2-methyltetrahydrofuran; settings: for emission bands: 2-methyltetrahydrofuran, 405 nm excitation
Method: FIGS. 7a and 7b show normalized emission spectra for the diphenyl anthracene diimides (top) and the tetraphenyl anthracene diimides (bottom) at 77° K in 2-methyltetrahydrofuran and 405 nm excitation.
In an attempt to better understand the excited state properties of the diphenyl and tetraphenyl anthracene diimides, sub-ambient (77 K) emission experiments were performed, with the results shown in FIGS. 7a and 7b. In the case of the diphenyl derivatives, DPO (35), DP (37), and DC (39) display similar emission spectra with overlapping bands near 434 nm, […], and 492 nm. Although the peak ratios differ slightly, the band shapes and positions are nearly identical. […] Similar results are observed for the tetraphenyl series. Here, TPO (40) and TP (41) display spectral features analogous to DPO (35), DP (37), and DC (39), but at lower energy.

[2] = Stokes shift / Lippert-Mataga solvatochromic analysis
From the text: The solvatochromic response of the anthracene diimides to photoexcitation was further characterized by analysis of the Stokes' shift and Lippert-Mataga polarity parameter,
where v is the Stokes' shift in wavenumbers, h is Plank's constant, c is the speed of light, ∈0 is the permittivity of free space, Δμ is the change in the dipole moment upon excitation, α^3 is the molecule's volume, as is the solvent dielectric constant, and n is the solvent refractive index. This relationship quantifies the change in dipole between the ground state and excited state of a molecule and, when used with the calculated ground state dipole, the magnitude of the excited state dipole moment may be estimated. Each line represents a solvatochromic emission component of the corresponding diimide. All other bands were not solvatochromic and not included in the analysis. For example, the emission spectra of DPO (35) in the selection of solvents were nearly identical and could not be used in the Lippert-Mataga correlations. DP (37) had two components in the emission profiles; a higher energy band that quickly disappeared with increasing solvent polarity and a lower energy component that red-shifted with increasing solvent polarity.

[3] = Emission spectra of anthracene diimides at room temperature (Example 1); settings: (p) peak, (s) shoulder
Method: (§1) Unless otherwise stated, all experiments used optically dilute solutions (Optical Density (OD)<0.2) at room temperature. […] Emission spectra were obtained with an Aminco-Bowman luminescence spectrometer (Series 2). The excitation was accomplished with a 150 W Xe lamp optically coupled to a monochrometer (+2 nm). The emission was collected at […] and passed through a second monochrometer (±2 nm). Luminescence was measured with a photomultiplier tube (PMT).

[4] = Luminescence lifetime by TCSPC (Example 1); settings: for 1τ: TCSPC 370 nm pulsed LED
Method: Luminescence lifetimes were measured with an IBH time-correlated single photon counting (TCSPC) system equipped with an IBH Model TBX-04 Photon Detection Module. The excitation source for the TCSPC measurements was a pulsed LED (IBH NanoLED, 455 nm, 1.3 ns pulse duration or 403 nm, <200 ps pulse duration) with a repetition rate of 1 MHz. All data was analyzed by iterative reconvolution of the decay profile (10,000 counts at the peak channel) with the instrument response function using software provided by the instrument manufacturer.

[5] = Radiative quantum yield against standards (Example 1)
Method: as §1

[6] = Absorption spectra of anthracene diimides in solvents of increasing polarity (Example 1)

## CCCCCCOc1ccc(-n2c(=O)c3cc4cc5c(-c6ccc(C#N)cc6)c6c(=O)n(-c7ccc(OCCCCCC)cc7)c(=O)c6cc5cc4c(-c4ccc(C#N)cc4)c3c2=O)cc1 [DC]
[1]; listed as DC (39)
  emission bands: ~434 nm and ~461 nm and ~492 nm
[2]; Lippert-Mataga correlation
  calculated dipole change (Δμ): 31.1 D
[2]; from toluene to acetonitrile
  Stokes' shift of charge transfer excited state: 95 nm
[3]; ACN (38.8)
  Em. λmax: 600(p) nm
[3]; Acetone (20.1)
  Em. λmax: 599(p) nm
[3]; C2H4Cl2 (10.7)
  Em. λmax: 571(p) nm
[3]; CHCl3 (4.8)
  Em. λmax: 555(p) nm and 504(s) nm
[3]; Ethyl Acetate (6.02)
  Em. λmax: 573(p) nm
[3]; THF (7.6)
  Em. λmax: 579(p) nm
[3]; Toluene (2.4)
  Em. λmax: 505(s) nm and 543(p) nm
[4]; ACN (38.8)
  1τ: <0.20 ns
[4]; Acetone (20.1)
  1τ: <0.20 ns
[4]; C2H4Cl2 (10.7)
  1τ: 0.21 ns
[4]; CHCl3 (4.8)
  1τ: 0.27 ns
[4]; Ethyl Acetate (6.02)
  1τ: <0.20 ns
[4]; THF (7.6)
  1τ: <0.20 ns
[4]; Toluene (2.4)
  1τ: 0.39 ns
[5]; ACN (38.8)
  Φr: 0.0051
[5]; Acetone (20.1)
  Φr: 0.0062
[5]; C2H4Cl2 (10.7)
  Φr: 0.017
[5]; CHCl3 (4.8)
  Φr: 0.025
[5]; Ethyl Acetate (6.02)
  Φr: 0.012
[5]; THF (7.6)
  Φr: 0.013
[5]; Toluene (2.4)
  Φr: 0.046
[6]; ACN (38.8)
  Abs. λmax: 423 nm
[6]; Acetone (20.1)
  Abs. λmax: 423 nm
[6]; C2H4Cl2 (10.7)
  Abs. λmax: 425 nm
[6]; CHCl3 (4.8)
  Abs. λmax: 425 nm
[6]; Ethyl Acetate (6.02)
  Abs. λmax: 418 nm
[6]; THF (7.6)
  Abs. λmax: 420 nm
[6]; Toluene (2.4)
  Abs. λmax: 417 nm

## CCCCCCOc1ccc(-n2c(=O)c3cc4cc5c(-c6ccc(OC)cc6)c6c(=O)n(-c7ccc(OCCCCCC)cc7)c(=O)c6cc5cc4c(-c4ccc(OC)cc4)c3c2=O)cc1 [DM]
[1]; relative to the other members of the series
  red shift of emission spectrum: 13 nm
[3]; ACN (38.8)
  Em. λmax: 463(p) nm and 487(s) nm and 551(p) nm
[3]; Acetone (20.1)
  Em. λmax: 463(p) nm and 492(p) nm and 554(p) nm
[3]; C2H4Cl2 (10.7)
  Em. λmax: 463(p) nm and 490(s) nm and 526(p) nm
[3]; CHCl3 (4.8)
  Em. λmax: 491(s) nm and 465(p) nm
[3]; Ethyl Acetate (6.02)
  Em. λmax: 463(p) nm and 488(p) nm and 526(p) nm
[3]; THF (7.6)
  Em. λmax: 463(p) nm and 494(p) nm and 538(p) nm
[3]; Toluene (2.4)
  Em. λmax: 462(p) nm and 488(s) nm
[4]; C2H4Cl2 (10.7)
  1τ: 0.34 ns
[4]; CHCl3 (4.8)
  1τ: 0.59 ns
[4]; Toluene (2.4)
  1τ: 1.25 ns
[5]; ACN (38.8)
  Φr: 0.0087
[5]; Acetone (20.1)
  Φr: 0.011
[5]; C2H4Cl2 (10.7)
  Φr: 0.030
[5]; CHCl3 (4.8)
  Φr: 0.064
[5]; Ethyl Acetate (6.02)
  Φr: 0.028
[5]; THF (7.6)
  Φr: 0.021
[5]; Toluene (2.4)
  Φr: 0.18
[6]; ACN (38.8)
  Abs. λmax: 427 nm
[6]; Acetone (20.1)
  Abs. λmax: 426 nm
[6]; C2H4Cl2 (10.7)
  Abs. λmax: 430 nm
[6]; CHCl3 (4.8)
  Abs. λmax: 431 nm
[6]; Ethyl Acetate (6.02)
  Abs. λmax: 425 nm
[6]; THF (7.6)
  Abs. λmax: 426 nm
[6]; Toluene (2.4)
  Abs. λmax: 428 nm

## CCCCCCCCn1c(=O)c2cc3cc4c(-c5ccccc5)c5c(=O)n(CCCCCCCC)c(=O)c5cc4cc3c(-c3ccccc3)c2c1=O [DPO]
[1]; listed as DPO (35)
  emission bands: ~434 nm and ~461 nm and ~492 nm
[3]; ACN (38.8)
  Em. λmax: 435(p) nm
[3]; Acetone (20.1)
  Em. λmax: 435(p) nm
[3]; C2H4Cl2 (10.7)
  Em. λmax: 436(p) nm
[3]; CHCl3 (4.8)
  Em. λmax: 437(p) nm
[3]; Ethyl Acetate (6.02)
  Em. λmax: 433(p) nm
[3]; THF (7.6)
  Em. λmax: 435(p) nm
[3]; Toluene (2.4)
  Em. λmax: 437(p) nm
[4]; ACN (38.8)
  1τ: 8.03 ns
[4]; Acetone (20.1)
  1τ: 7.29 ns
[4]; C2H4Cl2 (10.7)
  1τ: 5.60 ns
[4]; CHCl3 (4.8)
  1τ: 5.79 ns
[4]; Ethyl Acetate (6.02)
  1τ: 6.90 ns
[4]; THF (7.6)
  1τ: 6.71 ns
[4]; Toluene (2.4)
  1τ: 6.36 ns
[5]; ACN (38.8)
  Φr: 0.46
[5]; Acetone (20.1)
  Φr: 0.37
[5]; C2H4Cl2 (10.7)
  Φr: 0.46
[5]; CHCl3 (4.8)
  Φr: 0.36
[5]; Ethyl Acetate (6.02)
  Φr: 0.34
[5]; THF (7.6)
  Φr: 0.37
[5]; Toluene (2.4)
  Φr: 0.35
[6]; ACN (38.8)
  Abs. λmax: 423 nm
[6]; Acetone (20.1)
  Abs. λmax: 421 nm
[6]; C2H4Cl2 (10.7)
  Abs. λmax: 424 nm
[6]; CHCl3 (4.8)
  Abs. λmax: 426 nm
[6]; Ethyl Acetate (6.02)
  Abs. λmax: 420 nm
[6]; THF (7.6)
  Abs. λmax: 421 nm
[6]; Toluene (2.4)
  Abs. λmax: 422 nm

## CCCCCCOc1ccc(-n2c(=O)c3cc4cc5c(-c6ccccc6)c6c(=O)n(-c7ccc(OCCCCCC)cc7)c(=O)c6cc5cc4c(-c4ccccc4)c3c2=O)cc1 [DP]
[1]; listed as DP (37)
  emission bands: ~434 nm and ~461 nm and ~492 nm
[2]; second (lower energy) emission component, R^2=0.99
  slope of Lippert plot: 6,600.2 cm^−1
[3]; Acetone (20.1)
  Em. λmax: 500(s) nm and 584(p) nm
[3]; C2H4Cl2 (10.7)
  Em. λmax: 502(s) nm and 557(p) nm
[3]; CHCl3 (4.8)
  Em. λmax: 536(p) nm and 501(p) nm
[3]; Ethyl Acetate (6.02)
  Em. λmax: 500(s) nm and 555(p) nm
[3]; THF (7.6)
  Em. λmax: 502(s) nm and 562(p) nm
[3]; Toluene (2.4)
  Em. λmax: 497(p) nm and 525(p) nm
[4]; Acetone (20.1)
  1τ: <0.20 ns
[4]; C2H4Cl2 (10.7)
  1τ: <0.20 ns
[4]; CHCl3 (4.8)
  1τ: 0.38 ns
[4]; Ethyl Acetate (6.02)
  1τ: <0.20 ns
[4]; THF (7.6)
  1τ: <0.20 ns
[4]; Toluene (2.4)
  1τ: 0.62 ns
[4]; in ethyl acetate and solvents of higher polarity
  lifetime: below 200 ps
[4]; in toluene
  lifetime: 620 ps
[5]; Acetone (20.1)
  Φr: 0.0082
[5]; C2H4Cl2 (10.7)
  Φr: 0.020
[5]; CHCl3 (4.8)
  Φr: 0.028
[5]; Ethyl Acetate (6.02)
  Φr: 0.015
[5]; THF (7.6)
  Φr: 0.017
[5]; Toluene (2.4)
  Φr: 0.066
[5]; Toluene (2.4), listed as DP (37)
  Φr: 0.18
[6]; Acetone (20.1)
  Abs. λmax: 423 nm
[6]; C2H4Cl2 (10.7)
  Abs. λmax: 426 nm
[6]; CHCl3 (4.8)
  Abs. λmax: 428 nm
[6]; Ethyl Acetate (6.02)
  Abs. λmax: 421 nm
[6]; THF (7.6)
  Abs. λmax: 422 nm
[6]; Toluene (2.4)
  Abs. λmax: 422 nm
